Source: patent US20120077737A1, “HEPATITIS C INHIBITOR COMPOUNDS” (priority 2009, published 2012)

How the values were obtained:
[1] = test system: HCV genotype 1a subgenomic replicon with NS3 resistance mutation R155K; test: HCV replicon RNA replication assay, R155K 1a; type: cell-based, HCV genotype 1a (strain H77), Huh-7 cells; conditions: Hepatitis C virus, Huh-7, 72 h, read-out: R155K 1a Ec50 (nM)
[2] = test system: HCV genotype 1b subgenomic replicon with NS3 resistance mutation D168V; test: HCV replicon RNA replication assay, D168V 1b; type: cell-based, HCV genotype 1b (Con-1), Huh-7 cells; conditions: Hepatitis C virus, Huh-7, 72 h, read-out: D168V 1b Ec50 (nM)
[3] = test system: HCV genotype 1a subgenomic replicon with NS3 resistance mutation D168V; test: HCV replicon RNA replication assay, D168V 1a; type: cell-based, HCV genotype 1a (strain H77), Huh-7 cells; conditions: Hepatitis C virus, Huh-7, 72 h, read-out: D168V 1a Ec50 (nM)
[4] = test system: HCVPV1a subgenomic replicon (wild type 1a); test: HCV replicon RNA replication assay, wild type 1a; type: cell-based, HCV genotype 1a (strain H77), Huh-7 cells; conditions: Hepatitis C virus; Table 1; luciferase replicon, Huh-7, 72 h; read-out: WT 1a Ec50
[5] = test system: HCVPV1b subgenomic replicon (wild type 1b); test: HCV replicon RNA replication assay, wild type 1b; type: cell-based, HCV genotype 1b (Con-1), Huh-7 cells; conditions: Hepatitis C virus; Table 1; luciferase replicon, Huh-7, 72 h; read-out: WT 1b Ec50

| SMILES | EC50 [1] [nM] | EC50 [2] [nM] | EC50 [3] [nM] | EC50 [4] [nM] | EC50 [5] [nM] |
| --- | --- | --- | --- | --- | --- |
| COc1ccc2c(O[C@@H]3C[C@H]4C(=O)N[C@]5(C(=O)NS(=O)(=O)C6(C)CC6)C[C@H]5/C=C\CCCCC[C@H](NC(=O)c5cnn(CC(F)F)n5)C(=O)N4C3)cc(OC(C)C)nc2c1C [Compound 1010, (2R,6S,12Z,13aS,14aR,16aS)-6-({[2-(2,2-difluoroethyl)-2H-1,2,3-triazol-4-yl]carbonyl}amino)-2-{[7-methoxy-8-methyl-2-(propan-2-yloxy)quinolin-4-yl]oxy}-N-[(1-methylcyclopropyl)sulfonyl]-5,16-dioxo-1,2,3,6,7,8,9,10,11,13a,14,15,16,16a-tetradecahydrocyclopropa[e]pyrrolo[1,2-a][1,4]diazacyclopentadecine-14a(5H)-carboxamide] | 4.6 | 0.26 | 5.6 | 0.3 | 0.37 |
| COc1ccc2c(O[C@@H]3C[C@H]4C(=O)N[C@]5(C(=O)NS(=O)(=O)C6CC6)C[C@H]5/C=C\CCCCC[C@H](NC(=O)c5ccn(CC(F)F)n5)C(=O)N4C3)cc(OC(C)C)nc2c1C [Compound 1011, (2R,6S,12Z,13aS,14aR,16aS)-N-(cyclopropylsulfonyl)-6-({[1-(2,2-difluoroethyl)-1H-pyrazol-3-yl]carbonyl}amino)-2-{[7-methoxy-8-methyl-2-(propan-2-yloxy)quinolin-4-yl]oxy}-5,16-dioxo-1,2,3,6,7,8,9,10,11,13a,14,15,16,16a-tetradecahydrocyclopropa[e]pyrrolo[1,2-a][1,4]diazacyclopentadecine-14a(5H)-carboxamide] | 3.9 | 0.24 | 6.4 | 0.43 | 0.35 |
| COc1c(F)ccc2c(O[C@@H]3C[C@H]4C(=O)N[C@]5(C(=O)NS(=O)(=O)C6(C)CC6)C[C@H]5/C=C\CCCCC[C@H](NC(=O)c5ccn(C)n5)C(=O)N4C3)cc(OC(C)C)nc12 [Compound 1013, (2R,6S,12Z,13aS,14aR,16aS)-2-{[7-fluoro-8-methoxy-2-(propan-2-yloxy)quinolin-4-yl]oxy}-N-[(1-methylcyclopropyl)sulfonyl]-6-{[(1-methyl-1H-pyrazol-3-yl)carbonyl]amino}-5,16-dioxo-1,2,3,6,7,8,9,10,11,13a,14,15,16,16a-tetradecahydrocyclopropa[e]pyrrolo[1,2-a][1,4]diazacyclopentadecine-14a(5H)-carboxamide] | 1.6 | 0.45 | 0.75 | 0.5 | 0.37 |
| COc1ccc2c(O[C@@H]3C[C@H]4C(=O)N[C@]5(C(=O)NS(=O)(=O)C6CC6)C[C@H]5/C=C\CCCCC[C@H](NC(=O)c5ccc(C(C)(C)O)s5)C(=O)N4C3)cc(OC(C)C)nc2c1C [Compound 1014, (2R,6S,12Z,13aS,14aR,16aS)-N-(cyclopropylsulfonyl)-6-({[5-(2-hydroxypropan-2-yl)thiophen-2-yl]carbonyl}amino)-2-{[7-methoxy-8-methyl-2-(propan-2-yloxy)quinolin-4-yl]oxy}-5,16-dioxo-1,2,3,6,7,8,9,10,11,13a,14,15,16,16a-tetradecahydrocyclopropa[e]pyrrolo[1,2-a][1,4]diazacyclopentadecine-14a(5H)-carboxamide] | 8.5 | 0.82 | 6.3 | 1.2 | 1.2 |
| Cc1c(O)ccc2c(O[C@@H]3C[C@H]4C(=O)N[C@]5(C(=O)NS(=O)(=O)C6(C)CC6)C[C@H]5/C=C\CCCCC[C@H](NC(=O)c5ccn(C)n5)C(=O)N4C3)cc(OC(C)C)nc12 [Compound 1015, (2R,6S,12Z,13aS,14aR,16aS)-2-{[7-hydroxy-8-methyl-2-(propan-2-yloxy)quinolin-4-yl]oxy}-N-[(1-methylcyclopropyl)sulfonyl]-6-{[(1-methyl-1H-pyrazol-3-yl)carbonyl]amino}-5,16-dioxo-1,2,3,6,7,8,9,10,11,13a,14,15,16,16a-tetradecahydrocyclopropa[e]pyrrolo[1,2-a][1,4]diazacyclopentadecine-14a(5H)-carboxamide] | 0.95 | 0.96 | 6.9 | 0.96 | 1.3 |
| COc1c(F)ccc2c(O[C@@H]3C[C@H]4C(=O)N[C@]5(C(=O)NS(=O)(=O)C6CC6)C[C@H]5/C=C\CCCCC[C@H](NC(=O)c5ccn(C)n5)C(=O)N4C3)cc(OC(C)C)nc12 [Compound 1016, (2R,6S,12Z,13aS,14aR,16aS)-N-(cyclopropylsulfonyl)-2-{[7-fluoro-8-methoxy-2-(propan-2-yloxy)quinolin-4-yl]oxy}-6-{[(1-methyl-1H-pyrazol-3-yl)carbonyl]amino}-5,16-dioxo-1,2,3,6,7,8,9,10,11,13a,14,15,16,16a-tetradecahydrocyclopropa[e]pyrrolo[1,2-a][1,4]diazacyclopentadecine-14a(5H)-carboxamide] | 7.9 | 1 | 3.9 | 1.5 | 1.1 |
| COc1ccc2c(O[C@@H]3C[C@H]4C(=O)N[C@]5(C(=O)NS(=O)(=O)C6(C)CC6)C[C@H]5/C=C\CCCCC[C@H](NC(=O)c5ccn(CC(=O)N(C)C)n5)C(=O)N4C3)cc(OC(C)C)nc2c1C [Compound 1017, (2R,6S,12Z,13aS,14aR,16aS)-6-[({1-[2-(dimethylamino)-2-oxoethyl]-1H-pyrazol-3-yl}carbonyl)amino]-2-{[7-methoxy-8-methyl-2-(propan-2-yloxy)quinolin-4-yl]oxy}-N-[(1-methylcyclopropyl)sulfonyl]-5,16-dioxo-1,2,3,6,7,8,9,10,11,13a,14,15,16,16a-tetradecahydrocyclopropa[e]pyrrolo[1,2-a][1,4]diazacyclopentadecine-14a(5H)-carboxamide] | 1.2 | 1.5 | 2.7 | 1.1 | 1.1 |
| CNC(=O)Cn1ccc(C(=O)N[C@H]2CCCCC/C=C\[C@@H]3C[C@@]3(C(=O)NS(=O)(=O)C3CC3)NC(=O)[C@@H]3C[C@@H](Oc4cc(OC(C)C)nc5c(C)c(OC)ccc45)CN3C2=O)n1 [Compound 1018, (2R,6S,12Z,13aS,14aR,16aS)-N-(cyclopropylsulfonyl)-2-{[7-methoxy-8-methyl-2-(propan-2-yloxy)quinolin-4-yl]oxy}-6-[({1-[2-(methylamino)-2-oxoethyl]-1H-pyrazol-3-yl}carbonyl)amino]-5,16-dioxo-1,2,3,6,7,8,9,10,11,13a,14,15,16,16a-tetradecahydrocyclopropa[e]pyrrolo[1,2-a][1,4]diazacyclopentadecine-14a(5H)-carboxamide] | 4.2 | 2.4 | 9.8 | 2.7 | 3.3 |
| CNC(=O)Cn1ccc(C(=O)N[C@H]2CCCCC/C=C\[C@@H]3C[C@@]3(C(=O)NS(=O)(=O)C3(C)CC3)NC(=O)[C@@H]3C[C@@H](Oc4cc(OC(C)C)nc5c(C)c(OC)ccc45)CN3C2=O)n1 [Compound 1019, (2R,6S,12Z,13aS,14aR,16aS)-2-{[7-methoxy-8-methyl-2-(propan-2-yloxy)quinolin-4-yl]oxy}-6-[({1-[2-(methylamino)-2-oxoethyl]-1H-pyrazol-3-yl}carbonyl)amino]-N-[(1-methylcyclopropyl)sulfonyl]-5,16-dioxo-1,2,3,6,7,8,9,10,11,13a,14,15,16,16a-tetradecahydrocyclopropa[e]pyrrolo[1,2-a][1,4]diazacyclopentadecine-14a(5H)-carboxamide] | 1.6 | 1.8 | 5.4 | 2 | 1.5 |
| COc1ccc2c(O[C@@H]3C[C@H]4C(=O)N[C@]5(C(=O)NS(=O)(=O)C6(C)CC6)C[C@H]5/C=C\CCCCC[C@H](NC(=O)c5ccc(C(C)(C)O)s5)C(=O)N4C3)cc(OC(C)C)nc2c1C [Compound 1020, (2R,6S,12Z,13aS,14aR,16aS)-6-({[5-(2-hydroxypropan-2-yl)thiophen-2-yl]carbonyl}amino)-2-{[7-methoxy-8-methyl-2-(propan-2-yloxy)quinolin-4-yl]oxy}-N-[(1-methylcyclopropyl)sulfonyl]-5,16-dioxo-1,2,3,6,7,8,9,10,11,13a,14,15,16,16a-tetradecahydrocyclopropa[e]pyrrolo[1,2-a][1,4]diazacyclopentadecine-14a(5H)-carboxamide] | 2.4 | 0.39 | 3.7 | 0.86 | 0.66 |
| COc1c(F)ccc2c(O[C@@H]3C[C@H]4C(=O)N[C@]5(C(=O)NS(=O)(=O)C6(C)CC6)C[C@H]5/C=C\CCCCC[C@H](NC(=O)c5ccn(CCF)n5)C(=O)N4C3)cc(OC(C)C)nc12 [Compound 1021, (2R,6S,12Z,13aS,14aR,16aS)-6-({[1-(2-fluoroethyl)-1H-pyrazol-3-yl]carbonyl}amino)-2-{[7-fluoro-8-methoxy-2-(propan-2-yloxy)quinolin-4-yl]oxy}-N-[(1-methylcyclopropyl)sulfonyl]-5,16-dioxo-1,2,3,6,7,8,9,10,11,13a,14,15,16,16a-tetradecahydrocyclopropa[e]pyrrolo[1,2-a][1,4]diazacyclopentadecine-14a(5H)-carboxamide] | 1.9 | 0.53 | 0.93 | 0.34 | 0.48 |
